Experimental findings from PMC11191317, “PNSC928, a plant-derived compound, specifically disrupts CtBP2-p300 interaction and reduces inflammation in mice with acute respiratory distress syndrome” (Biology Direct, 2024) are described below.

Molecules are shown by their SMILES.

The subject of one assay is RAW264.7 cells. Put plainly: RT-qPCR of CtBP2/p300/NF-κB target genes in LPS-treated RAW264.7 cells (PNSC928). The assay is classed as cell-based, mouse. To be noted: LPS + PNSC928 23.6 and 47.2 µM, 6 h. On the procedure: For LPS treatment, different knockdown (KD) cell lines—Control^KD, CtBP2^KD, p300^KD, and p65^KD, all derived from MPAEpiC—were seeded in 12-well plates and cultured at 37 °C until reaching 80% confluence. The cells were then treated with 200 ng/mL of LPS for 6 h, washed three times with PBS, and subjected to the required experiments. For experiments involving inhibitors of CtBP2, p300, and NF-κB, as well as the compound PNSC928, MPAEpiC, RAW264.7, FL83B, TKPTS, and HL-1 cells were seeded in 12-well plates and cultured at 37 °C to reach 80% confluence. […]
RNA was isolated from both cultured cells and mouse lung tissues utilizing the TRIzol Reagent (Invitrogen; Shanghai, China; #15,596,018) in adherence to the manufacturer’s protocol. […] Gene expression quantification was carried out using the SYBR GreenER qPCR SuperMix Universal (Thermo Fisher; #1176202K) in combination with the specific primers delineated in Table S3. […]
Fig. 5 Determination of PNSC928 cytotoxicity and evaluation of PNSC928 effects on the expression levels of CtBP2/p300/NF-κB target genes. […] Cell viability was assessed every 24 h for 5 days. […] Subsequently, RNA isolation and RT-qPCR analysis were performed to quantify mRNA levels of various genes. […]

In a further assay the target is T1, CtBP2-p300 interaction (Mus musculus, UniProt B2RWS6+P56546).
T1 construct: In vivo immunoprecipitation with anti-CtBP2-coated protein G beads in MPAEpiC cells; endogenous in cells; host or cells: MPAEpiC (mouse pulmonary alveolar epithelial cells)
T1 sequence (P56546 whole entry): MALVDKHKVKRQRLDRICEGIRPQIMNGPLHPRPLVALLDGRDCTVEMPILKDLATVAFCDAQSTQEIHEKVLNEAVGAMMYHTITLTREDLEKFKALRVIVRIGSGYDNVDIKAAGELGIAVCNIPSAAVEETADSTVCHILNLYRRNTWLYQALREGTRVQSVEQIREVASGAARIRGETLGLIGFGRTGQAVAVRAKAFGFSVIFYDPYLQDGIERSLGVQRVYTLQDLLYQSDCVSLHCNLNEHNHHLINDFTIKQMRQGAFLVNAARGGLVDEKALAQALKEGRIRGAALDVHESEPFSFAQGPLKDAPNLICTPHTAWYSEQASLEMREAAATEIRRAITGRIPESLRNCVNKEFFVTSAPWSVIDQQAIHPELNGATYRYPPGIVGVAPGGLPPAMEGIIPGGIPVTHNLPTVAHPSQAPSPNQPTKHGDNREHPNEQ
T1 sequence (B2RWS6 whole entry): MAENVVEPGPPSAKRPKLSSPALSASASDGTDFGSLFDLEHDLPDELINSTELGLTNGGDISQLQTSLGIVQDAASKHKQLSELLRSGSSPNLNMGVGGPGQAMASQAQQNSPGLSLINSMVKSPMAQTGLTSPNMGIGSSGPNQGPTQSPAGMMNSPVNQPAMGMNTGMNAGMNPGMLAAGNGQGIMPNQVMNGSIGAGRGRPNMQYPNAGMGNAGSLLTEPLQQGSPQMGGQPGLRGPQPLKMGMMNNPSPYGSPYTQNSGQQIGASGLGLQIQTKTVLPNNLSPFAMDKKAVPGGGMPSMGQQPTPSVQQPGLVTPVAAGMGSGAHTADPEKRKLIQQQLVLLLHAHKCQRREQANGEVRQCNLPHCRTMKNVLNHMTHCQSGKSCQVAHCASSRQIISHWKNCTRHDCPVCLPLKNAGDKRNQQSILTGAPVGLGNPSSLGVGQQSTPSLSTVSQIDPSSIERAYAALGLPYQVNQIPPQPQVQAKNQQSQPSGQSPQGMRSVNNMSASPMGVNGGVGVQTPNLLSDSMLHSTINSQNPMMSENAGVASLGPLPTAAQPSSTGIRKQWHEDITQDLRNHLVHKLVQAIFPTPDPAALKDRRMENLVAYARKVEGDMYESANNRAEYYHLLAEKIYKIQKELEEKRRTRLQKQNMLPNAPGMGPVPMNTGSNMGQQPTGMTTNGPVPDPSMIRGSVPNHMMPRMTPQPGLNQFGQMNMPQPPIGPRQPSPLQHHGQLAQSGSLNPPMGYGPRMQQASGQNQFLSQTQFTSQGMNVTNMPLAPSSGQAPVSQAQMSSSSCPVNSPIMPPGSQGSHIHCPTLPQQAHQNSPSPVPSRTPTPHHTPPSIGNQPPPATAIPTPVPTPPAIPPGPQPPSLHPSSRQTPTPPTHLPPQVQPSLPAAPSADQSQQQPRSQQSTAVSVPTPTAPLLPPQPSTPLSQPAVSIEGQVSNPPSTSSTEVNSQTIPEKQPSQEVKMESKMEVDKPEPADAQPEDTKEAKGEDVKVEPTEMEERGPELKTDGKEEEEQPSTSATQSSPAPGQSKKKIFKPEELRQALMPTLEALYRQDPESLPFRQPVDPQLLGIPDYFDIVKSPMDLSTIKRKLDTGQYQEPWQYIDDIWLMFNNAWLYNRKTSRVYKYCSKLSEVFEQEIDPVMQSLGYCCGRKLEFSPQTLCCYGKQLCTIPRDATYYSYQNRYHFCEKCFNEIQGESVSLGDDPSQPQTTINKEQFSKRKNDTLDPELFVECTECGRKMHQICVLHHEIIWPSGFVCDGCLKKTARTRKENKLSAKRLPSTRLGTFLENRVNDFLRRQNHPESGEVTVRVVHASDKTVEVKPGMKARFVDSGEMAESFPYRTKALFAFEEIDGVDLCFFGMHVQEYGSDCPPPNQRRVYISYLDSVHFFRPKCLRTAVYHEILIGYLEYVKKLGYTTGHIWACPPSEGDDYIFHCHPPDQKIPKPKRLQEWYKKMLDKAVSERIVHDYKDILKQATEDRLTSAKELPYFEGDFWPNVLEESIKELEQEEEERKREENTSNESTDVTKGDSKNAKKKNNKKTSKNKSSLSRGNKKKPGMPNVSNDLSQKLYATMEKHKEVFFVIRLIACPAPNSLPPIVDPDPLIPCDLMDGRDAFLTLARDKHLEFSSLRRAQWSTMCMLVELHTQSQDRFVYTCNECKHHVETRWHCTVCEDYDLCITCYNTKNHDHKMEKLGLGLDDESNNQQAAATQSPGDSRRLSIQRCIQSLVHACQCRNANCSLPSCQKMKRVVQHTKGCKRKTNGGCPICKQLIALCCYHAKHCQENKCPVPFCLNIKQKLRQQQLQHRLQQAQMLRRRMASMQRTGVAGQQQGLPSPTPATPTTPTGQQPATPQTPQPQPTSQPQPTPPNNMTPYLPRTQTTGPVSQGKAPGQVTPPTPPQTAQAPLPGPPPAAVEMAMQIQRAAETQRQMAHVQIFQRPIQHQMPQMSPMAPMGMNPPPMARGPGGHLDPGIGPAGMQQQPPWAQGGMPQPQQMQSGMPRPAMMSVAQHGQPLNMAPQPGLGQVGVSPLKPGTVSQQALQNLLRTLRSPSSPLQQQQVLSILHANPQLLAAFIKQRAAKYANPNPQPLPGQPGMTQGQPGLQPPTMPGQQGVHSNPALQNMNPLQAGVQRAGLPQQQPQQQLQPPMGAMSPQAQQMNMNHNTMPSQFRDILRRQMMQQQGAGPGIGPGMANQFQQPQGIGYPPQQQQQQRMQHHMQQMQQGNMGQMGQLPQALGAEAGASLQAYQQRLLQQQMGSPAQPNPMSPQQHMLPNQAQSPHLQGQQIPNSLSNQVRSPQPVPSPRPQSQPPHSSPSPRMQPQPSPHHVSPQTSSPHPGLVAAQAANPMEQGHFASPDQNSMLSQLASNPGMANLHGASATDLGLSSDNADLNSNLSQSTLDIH
Put plainly: Immunoprecipitation with anti-CtBP2 in MPAEpiC cells co-treated with LPS and PNSC928. To be noted: LPS + PNSC928 0, 11.8, 23.6, and 47.2 µM, 6 h. The assay is classed as cell-based. As to the method:
For LPS treatment, different knockdown (KD) cell lines—Control^KD, CtBP2^KD, p300^KD, and p65^KD, all derived from MPAEpiC—were seeded in 12-well plates and cultured at 37 °C until reaching 80% confluence. The cells were then treated with 200 ng/mL of LPS for 6 h, washed three times with PBS, and subjected to the required experiments. For experiments involving inhibitors of CtBP2, p300, and NF-κB, as well as the compound PNSC928, MPAEpiC, RAW264.7, FL83B, TKPTS, and HL-1 cells were seeded in 12-well plates and cultured at 37 °C to reach 80% confluence. Cells were then cotreated with 200 ng/mL LPS along with varying concentrations of the following chemicals: MTOB (0, 5, 10, or 20 mM), NSC95397 (0, 10, 20, or 40 µM), C646 (0, 3, 6, or 12 µM), A-485 (0, 5, 10, or 20 nM), TPCA1 (0, 150, 300, or 600 nM), BOT64 (0, 1, 2, or 4 µM), or PNSC928 (0, 11.8, 23.6, or 47.2 µM). After 6 h of treatment, cells were washed three times with PBS before proceeding with further experiments. […]
To probe this interaction, we established an AlphaScreen system that utilized GST-p300^BRD and His-CtBP2, binding to donor and acceptor beads, respectively (Fig. 4C). […] In vitro assays assessed the effects of PNSC928 on the CtBP2-p300^BRD interaction. […] Furthermore, we assessed the impact of combined LPS and PNSC928 treatment on the expression of key molecules in the NF-κB signaling pathway.

Take `CC(=CCCC1=CCC(C2COC(=O)C2)OC1O)CCC1=C(C)CCCC1(C)C` (stereo not drawn) [PNSC928]: in the assay on RAW264.7 cells, the “Expression levels of CDH1, CDKN1A, CDKN2A, CHRD, PAX6, BAX, NOD2, CCL2, CXCL10, CXCL12, MMP1, STAT1, MIP2, CCR5, GM-CSF, VEGF, COX2, and iNOS” value is listed as “did not alter the expression levels”; the “LPS-induced IL-1B, IL-6, IL-15, IL-18, TNFA, and IFNG expressions” value was “dose-dependent reversal”. Further, the “p300^BRD levels pulled down by CtBP2” value on CtBP2-p300 interaction is listed as “dose-dependent decrease”.
